Earlier results, collected in PMC9014845 (Clinical cancer research : an official journal of the …, 2019).

How the values were obtained:
[1] = system: patients with FGFR alterations; settings: 23 patients with FGFR alterations; cited from earlier work
[2] = system: patients with FGFR alterations; settings: cited from earlier work

SMILES | Patients with stable disease for >3 months [1] | Overall DCR [2]
COc1cc(OC)cc(N(CCNC(C)C)c2ccc3ncc(-c4cnn(C)c4)nc3c2)c1 [JNJ-42756493] | 8 patients | 
CCN1CCN(c2ccc(Nc3cc(N(C)C(=O)Nc4c(Cl)c(OC)cc(OC)c4Cl)ncn3)cc2)CC1 [BGJ398] |  | 37%
